Measured values published in PMC4293695 (Bioorganic & medicinal chemistry letters, 2014).

Legend:
[1] = cited from earlier work
[2] = biological target: PCP site of the NMDA receptor; type: binding; details: read-out: [3H]TCP Ki; [3H]TCP as radioligand; rat brain membrane suspensions; mean from two experiments

SMILES | measured logD [1] | Ki [2]
CN(C(=N)Nc1cccc2ccccc12)c1cccc(I)c1 [Ligand 1] | 2.19 | 
CN(C(=N)Nc1cccc2ccccc12)c1cccc(Cl)c1F [Ligand 34] |  | 701 nM
